Laboratory results: EP2718307B1, “BETA-HAIRPIN PEPTIDOMIMETICS AS CXC4 ANTAGONISTS” (Polyphor AG, priority 2011, dated 2012)
Bridge positions count the residues as written; N and C are the ends. Square brackets hold non-standard residues; d marks the D form. Peptide text beside a SMILES is read from it. Lys(iPr) = CC(C)NCCCC[C@H](N)C(=O)O; Orn(iPr) = CC(C)NCCC[C@H](N)C(=O)O

Assays:
[1] = Pharmacokinetic study (PK) after intravenous administration; format: in vivo, male CD-1 mice; conditions: 1 mg/kg; for AUC0-∞ / CL / Cmax / Half-life / Vdis: mouse, in vivo
Protocol: For the compounds of Ex. 1, Ex.2, Ex. 3, Ex. 4, Ex. 5 and Ex. 6 pharmacokinetic studies after intravenous (i.v.) administration were performed.
30 grams (± 20%) male CD-1 mice obtained from Charles River Laboratories Deutschland GmbH were used. The vehicle, phosphate buffered saline, was added to give a final concentration of 0.5 mg/mL of the compound. The volume was 2 mL/kg and the compound was injected to give a final intravenous dose of 1 mg/kg. Approximately 300-400 µL of blood was removed under light isoflurane anesthesia by cardiac puncture at predetermined time intervals (5, 15, 30 min and 1, 2, 3, 4, hours) and added to heparinized tubes. Plasma was removed from pelleted cells upon centrifugation and frozen at -80 °C prior to HPLC-MS analysis.
Aliquots of 50 µL each of mouse plasma of untreated aminals ("blank" mouse plasma) were spiked with known amounts of the compounds Ex. 1, Ex.2, Ex. 3, Ex. 4, Ex. 5 and Ex. 6 in order to obtain 10 plasma calibration samples for each compound in the range 1 - 4000 ng/mL. Aliquots of 50 µL each of mouse plasma from treated animals were used as plasma study samples.
All plasma samples were spiked with an appropriate internal standard and extracted with acetonitrile containing 2% formic acid. Supernatants were evaporated to dryness under nitrogen and the remaining solids reconstituted in water/acetonitrile 95/5 (v/v) + 0.2% formic acid.
Extracts were then analyzed by reverse-phase chromatography (Acquity BEH C18, 100 x 2.1 mm, 1.7 µm column, Waters for Ex. 1 and Acquity HSS C18 SB, 100 x 2.1 mm, 1.8 µm column, Waters for Ex. 2, Ex. 3, Ex. 4, Ex. 5 and Ex. 6), using the following conditions: Ex. 1, mobile phases: (A) water/acetonitrile 95/5 (v/v) + 0.1% formic acid, (B) acetonitrile/water 95/5 (v/v) + 0.1% formic acid, gradient: 1% (B) 0-0.1 min, 15% (B) 0.1-2.5 min for Ex. 1 and 1% (B) 0-0.1 min, 40% (B) 0.1-2.5 min for Ex. 2, Ex. 3, Ex. 4, Ex. 5 and Ex. 6. The detection and quantification was performed by mass spectrometry, with electrospray interface in positive mode and selective fragmentation of analytes (4000 Q Trap mass spectrometer, AB Sciex).
PK parameters were calculated by WinNonLin™ software version 5.3 (Pharsight- A Certara™ Company, Moutain View, CA 94041 USA) using a one-compartmental model analysis. PK parameters were determined by least-square fitting of the model to the experimental data.

[2] = Drug loading calculations via maintenance dose rate (rate of infusion); conditions: CLiv-mouse values scaled by 0.127 (GFR human/GFR mouse)
Protocol: The drug load for an implant comprising a peptide of the invention was calculated following the basic principles in pharmacokinetics (see also J. Gabrielsson, D. Weiner, "Pharmacokinetics and Pharmaco-dynamics Data Analysis: Concepts and Applications", 4th edition, Swedish Pharmaceutical Press, Stockholm, Sweden, 2006) whereby the maintainance dose rate (rate of infusion, Rin) can be defined as the rate at which a drug is to be administered to reach a steady state of a certain dose in the plasma. The maintainance dose rate can be expressed using the correlation Rin [g/(h*kg)] = CLiv[L/(h*kg)] x Css,eff [g/L], wherein CLiv is the clearance (i.v. - admin.) and Css,eff the effective concentration of the drug in the plasma at steady state considering an efficacy margin A: Css,eff [g/L] = A x (IC50/fu) x MW [(mol/L)*(g/mol)]. Therefore, the total amount of a drug loaded into an implant providing for a constant effective concentration of that drug in the plasma for a certain period of time in a subject of a certain body weight can be calculated by applying the following correlation: Drugload [g/subject] = Rin [g/(h*kg)] x duration[h] x BW [kg/subject]. [formula]
Further pre-conditions are an efficacy margin of A = 3, a study duration of 672 h (28 days) and a body weight of a human suject of 70 kg. The glomerular filtration rate (GFR) which mainly influences the clearance of the peptides is highly dependent on the species. In general, the GFR of humans is averaged to be 107 mL/(h*kg) compared to the GFR of mouse being 840 mL/(h*kg). Therefore, the CLiv-mouse values indicated in Table 5b were allometrically scaled by 107 mL/(h*kg)/840 mL/(h*kg) = 0.127 before employed in the above described correlations.

| Structure (SMILES) | Calc. Conc. ([1]; mouse plasma, i.v. route, Time 4 h) [ng/mL] | AUC0-∞ ([1]; iv) [ng·h/mL] | CL ([1]; iv) [mL/min/kg] | Cmax ([1]; iv) [ng/mL] | Half-life ([1]; iv) [min] | Vdis ([1]; iv) [L/kg] | CLiv, human (allometric scaled) [2] [mL/min/kg] | level at 4 h ([1]; male, CD-1, in vivo, iv, mouse plasma, i.v. route, Time 4 h, read-out: Calc. Conc.) [ng/mL] |
| --- | --- | --- | --- | --- | --- | --- | --- | --- |
| CC(C)NCCCC[C@@H]1NC(=O)[C@H](CCC(N)=O)NC(=O)[C@H](Cc2ccc(O)cc2)NC(=O)[C@@H]2CSSC[C@H](NC(=O)[C@H](Cc3ccc(O)cc3)NC(=O)[C@H](Cc3c[nH]cn3)NC(=O)[C@H](Cc3ccc(O)cc3)NC(=O)[C@@H]3CCCN3C(=O)[C@H]3CCCN3C1=O)C(=O)N[C@@H](CO)C(=O)N[C@@H](C)C(=O)N1CCC[C@@H]1C(=O)N[C@@H](CCCNC(C)C)C(=O)N[C@@H](CCCNC(=N)N)C(=O)N[C@@H](Cc1ccc(O)cc1)C(=O)N2 [Ex. 1, cyclo(-Tyr^1-His^2-Tyr^3-Cys^4-Ser^5-Ala^6-^DPro^7-Orn(iPr)^8-Arg^9-Tyr^10-Cys^11-Tyr^12-Gln^13-Lys(iPr)^14-^DPro^15-Pro^16-), disulfide bond between Cys^4 and Cys^11] (cyclo(YHYCSA[dP][Orn(iPr)]RYCYQ[Lys(iPr)][dP]P); disulfide 4-11) | 7 | 1151 | 14.5 | 1829 | 24 | 0.547 | 1.83 | – |
| COc1ccc(C[C@@H]2NC(=O)[C@H](Cc3c[nH]cn3)NC(=O)[C@H](Cc3ccc(O)cc3)NC(=O)[C@@H]3CCCN3C(=O)[C@H]3CCCN3C(=O)[C@H](CCCCNC(C)C)NC(=O)[C@H](CCC(N)=O)NC(=O)[C@H](Cc3ccc(O)cc3)NC(=O)[C@@H]3CSSC[C@H](NC2=O)C(=O)N[C@@H](CO)C(=O)N[C@@H](C)C(=O)N2CCC[C@@H]2C(=O)N[C@@H](CCCNC(C)C)C(=O)N[C@@H](CCCNC(=N)N)C(=O)N[C@@H](Cc2ccc(O)cc2)C(=O)N3)cc1 [Ex. 2, cyclo(-Tyr^1-His^2-Tyr(Me)^3-Cys^4-Ser^5-Ala^6-^DPro^7-Orn(iPr)^8-Arg^9-Tyr^10-Cys^11-Tyr^12-Gln^13-Lys(iPr)^14-^DPro^15-Pro^16-), disulfide bond between Cys^4 and Cys^11] (cyclo(YHY(Me)CSA[dP][Orn(iPr)]RYCYQ[Lys(iPr)][dP]P); disulfide 4-11) | – | 1518 | 11 | 1575 | 42 | 0.635 | 1.4 | – |
| COc1ccc(C[C@H]2NC(=O)[C@H](C)NC(=O)[C@H](CO)NC(=O)[C@@H]3CSSC[C@H](NC(=O)[C@H](Cc4ccc(O)cc4)NC(=O)[C@H](CCCNC(=N)N)NC(=O)[C@H](CCCNC(C)C)NC2=O)C(=O)N[C@@H](Cc2ccc(O)cc2)C(=O)N[C@@H](CCC(N)=O)C(=O)N[C@@H](CCCCNC(C)C)C(=O)N2CCC[C@@H]2C(=O)N2CCC[C@H]2C(=O)N[C@@H](Cc2ccc(O)cc2)C(=O)N[C@@H](Cc2c[nH]cn2)C(=O)N[C@@H](C)C(=O)N3)cc1 [Ex. 4, cyclo(-Tyr^1-His^2-Ala^3-Cys^4-Ser^5-Ala^6-^DTyr(Me)^7-Orn(iPr)^8-Arg^9-Tyr^10-Cys^11-Tyr^12-Gln^13-Lys(iPr)^14-^DPro^15-Pro^16-), disulfide bond between Cys^4 and Cys^11] (cyclo(YHACSA[dY](Me)[Orn(iPr)]RYCYQ[Lys(iPr)][dP]P); disulfide 4-11) | – | 1345 | 12.4 | 1615 | 36 | 0.607 | 1.57 | – |
| COc1ccc(C[C@@H]2NC(=O)[C@H](Cc3c[nH]cn3)NC(=O)[C@H](Cc3ccc(O)cc3)NC(=O)[C@@H]3CCCN3C(=O)[C@H]3CCCN3C(=O)[C@H](CCCCNC(C)C)NC(=O)[C@H](CCC(N)=O)NC(=O)[C@H](Cc3ccc(O)cc3)NC(=O)[C@@H]3CSSC[C@H](NC2=O)C(=O)N[C@@H](CO)C(=O)N[C@@H](C)C(=O)N[C@H](Cc2ccc(OC)cc2)C(=O)N[C@@H](CCCNC(C)C)C(=O)N[C@@H](CCCNC(=N)N)C(=O)N[C@@H](Cc2ccc(O)cc2)C(=O)N3)cc1 [Ex. 6, cyclo(-Tyr^1-His^2-Tyr(Me)^3-Cys^4-Ser^5-Ala^6-^DTyr(Me)^7-Orn(iPr)^8-Arg^9-Tyr^10-Cys^11-Tyr^12-Gln^13-Lys(iPr)^14-^DPro^15-Pro^16-), disulfide bond between Cys^4 and Cys^11] (cyclo(YHY(Me)CSA[dY](Me)[Orn(iPr)]RYCYQ[Lys(iPr)][dP]P); disulfide 4-11) | – | – | – | – | – | – | 5.18 | 7 |
